Experimental data reported in patent US10758534B2 (Vertex Pharmaceuticals Incorporated, priority 2014, dated 2020).

Molecular target: T1, F508del (Homo sapiens, UniProt P13569, DEL508-508)
T1 construct: expressed in transfected cells
Test: Protocol 2: FRET membrane potential optical assay (VIPR), identification of correction compounds
Type: cell-based
Settings: F508del CFTR modulator activity; compounds of Table 1; read-out: EC30
Outline: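 FRET read-out (CC2-DMPE donor, DiSBAC2(3) voltage-sensitive acceptor) of membrane depolarization on VIPR II. Corrector candidates incubated 16 hrs at 37° C. with NIH3T3 cells expressing F508del; temperature correction at 27° C. as positive control; stimulation by 10 μM forskolin, 20 μM genistein, chloride-free gluconate bath.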

T1 sequence (P13569 with tags, fused parts or gaps DEL508-508): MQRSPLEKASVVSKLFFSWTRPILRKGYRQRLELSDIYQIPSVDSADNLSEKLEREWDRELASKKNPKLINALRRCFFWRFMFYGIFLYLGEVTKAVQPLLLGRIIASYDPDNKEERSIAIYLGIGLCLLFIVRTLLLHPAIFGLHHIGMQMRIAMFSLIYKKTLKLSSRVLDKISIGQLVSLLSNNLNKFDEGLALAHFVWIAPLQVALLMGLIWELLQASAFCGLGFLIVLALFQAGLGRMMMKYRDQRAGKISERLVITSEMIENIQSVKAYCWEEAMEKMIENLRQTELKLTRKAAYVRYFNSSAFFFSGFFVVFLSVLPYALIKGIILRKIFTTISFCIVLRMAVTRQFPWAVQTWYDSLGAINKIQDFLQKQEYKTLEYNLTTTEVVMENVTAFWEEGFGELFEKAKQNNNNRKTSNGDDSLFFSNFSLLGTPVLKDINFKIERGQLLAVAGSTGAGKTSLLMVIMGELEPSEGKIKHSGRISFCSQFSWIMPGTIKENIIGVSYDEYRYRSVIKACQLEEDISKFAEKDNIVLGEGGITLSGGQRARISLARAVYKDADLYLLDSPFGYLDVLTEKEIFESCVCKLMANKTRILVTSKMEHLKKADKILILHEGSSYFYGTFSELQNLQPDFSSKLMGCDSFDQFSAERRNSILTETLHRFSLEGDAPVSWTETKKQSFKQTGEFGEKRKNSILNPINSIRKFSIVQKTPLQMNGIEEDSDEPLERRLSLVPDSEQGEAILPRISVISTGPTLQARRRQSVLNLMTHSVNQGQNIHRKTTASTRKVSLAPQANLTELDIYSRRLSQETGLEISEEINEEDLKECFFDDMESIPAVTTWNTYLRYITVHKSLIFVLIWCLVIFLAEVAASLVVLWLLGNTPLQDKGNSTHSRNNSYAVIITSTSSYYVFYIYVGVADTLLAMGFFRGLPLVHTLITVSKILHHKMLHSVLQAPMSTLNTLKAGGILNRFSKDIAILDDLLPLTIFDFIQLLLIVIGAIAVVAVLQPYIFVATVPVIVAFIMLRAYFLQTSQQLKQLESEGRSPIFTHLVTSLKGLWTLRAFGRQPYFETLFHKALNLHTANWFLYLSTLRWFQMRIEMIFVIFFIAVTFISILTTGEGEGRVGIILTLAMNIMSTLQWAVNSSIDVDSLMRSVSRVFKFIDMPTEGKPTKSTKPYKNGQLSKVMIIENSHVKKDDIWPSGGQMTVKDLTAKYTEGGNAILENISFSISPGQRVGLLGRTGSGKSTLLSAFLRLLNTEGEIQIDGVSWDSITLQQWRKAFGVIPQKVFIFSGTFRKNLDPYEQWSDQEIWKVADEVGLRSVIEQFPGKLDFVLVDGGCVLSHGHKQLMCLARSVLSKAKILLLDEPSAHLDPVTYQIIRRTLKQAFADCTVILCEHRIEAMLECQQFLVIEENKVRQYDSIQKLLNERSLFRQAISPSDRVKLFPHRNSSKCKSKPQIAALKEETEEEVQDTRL

Row | Structure (SMILES) | EC30 [µM]
1 | CC1CN(c2ncccc2C(=O)NS(=O)(=O)c2cccc(Nc3cccc4ccccc34)n2)C(C)(C)C1 (stereo not shown) [Compound 2136, N—[[6-(1-naphthylamino)-2-pyridyl]sulfonyl]-2-(2,2,4-trimethylpyrrolidin-1-yl)pyridine-3-carboxamide] | < 3
2 | CC1CN(c2ncccc2C(=O)NS(=O)(=O)c2cccc(OCC(C)(C)n3cccc3)n2)C(C)(C)C1 (stereo not shown) [Compound 2137, N—[[6-(2-methyl-2-pyrrol-1-yl-propoxy)-2-pyridyl]sulfonyl]-2-(2,2,4-trimethylpyrrolidin-1-yl)pyridine-3-carboxamide] | < 3
3 | CCOc1ccc(F)c(-c2ccc(C(=O)NS(=O)(=O)c3ccc[nH]c3=O)c(N3C[C@@H](C)CC3(C)C)n2)c1 [Compound 2138, 6-(5-ethoxy-2-fluoro-phenyl)-N-[(2-oxo-1H-pyridin-3-yl)sulfonyl]-2-[(4S)-2,2,4-trimethylpyrrolidin-1-yl]pyridine-3-carboxamide] | < 3
4 | CC(C)(C)c1ccc(C(=O)NS(=O)(=O)c2cccc(N)n2)c(N2CCC(C3CCOCC3)C2(C)C)n1 (stereo not shown) [Compound 2139] | < 3
5 | COC(=O)c1ccc(Nc2cccc(S(=O)(=O)NC(=O)c3cccnc3N3CC(C)CC3(C)C)n2)nc1 (stereo not shown) [Compound 2140, methyl 6-[[6-[[2-(2,2,4-trimethylpyrrolidin-1-yl)pyridine-3-carbonyl]sulfamoyl]-2-pyridyl]amino]pyridine-3-carboxylate] | 3 to 10
6 | C[C@@H]1CN(c2ncccc2C(=O)NS(=O)(=O)N2CCN(CCCc3ccc(Cl)cc3)CC2)C(C)(C)C1 [Compound 2141, N-[4-[3-(4-chlorophenyl)propyl]piperazin-1-yl]sulfonyl-2-[(4S)-2,2,4-trimethylpyrrolidin-1-yl]pyridine-3-carboxamide] | < 3
7 | CC1CN(c2ncccc2C(=O)NS(=O)(=O)c2cccc(Nc3cccc(C(C)(C)C)c3)n2)C(C)(C)C1 (stereo not shown) [Compound 2142, N—[[6-(3-tert-butylanilino)-2-pyridyl]sulfonyl]-2-(2,2,4-trimethylpyrrolidin-1-yl)pyridine-3-carboxamide] | < 3
8 | CC1CN(c2ncccc2C(=O)NS(=O)(=O)c2cccc(Nc3cccc(OC(F)(F)F)c3)n2)C(C)(C)C1 (stereo not shown) [Compound 2143, N—[[6-[3-(trifluoromethoxy)anilino]-2-pyridyl]sulfonyl]-2-(2,2,4-trimethylpyrrolidin-1-yl)pyridine-3-carboxamide] | < 3
9 | C[C@@H]1CN(c2nc(-c3cccc(C(F)(F)F)c3)ccc2C(=O)NS(=O)(=O)c2ccc[nH]c2=O)C(C)(C)C1 [Compound 2144, N-[(2-oxo-1H-pyridin-3-yl)sulfonyl]-6-[3-(trifluoromethyl)phenyl]-2-[(4S)-2,2,4-trimethylpyrrolidin-1-yl]pyridine-3-carboxamide] | < 3
10 | CC1CN(c2ncccc2C(=O)NS(=O)(=O)c2cccc(Oc3ccc(Cl)cc3)n2)C(C)(C)C1 (stereo not shown) [Compound 2145, N—[[6-(4-chlorophenoxy)-2-pyridyl]sulfonyl]-2-(2,2,4-trimethylpyrrolidin-1-yl)pyridine-3-carboxamide] | < 3
11 | CC1CN(c2ncccc2C(=O)NS(=O)(=O)c2cccc(NCCc3cccs3)n2)C(C)(C)C1 (stereo not shown) [Compound 2146, N—[[6-[2-(2-thienyl)ethylamino]-2-pyridyl]sulfonyl]-2-(2,2,4-trimethylpyrrolidin-1-yl)pyridine-3-carboxamide] | < 3
12 | CC1CN(c2ncccc2C(=O)NS(=O)(=O)c2cccc(OC3C=CCCC3)n2)C(C)(C)C1 (stereo not shown) [Compound 2147, N-[(6-cyclohex-2-en-1-yloxy-2-pyridyl)sulfonyl]-2-(2,2,4-trimethylpyrrolidin-1-yl)pyridine-3-carboxamide] | < 3
13 | Cc1ccc(-c2ccc(C(=O)NS(=O)(=O)c3ccc[nH]c3=O)c(N3C[C@@H](C)CC3(C)C)n2)c(O)c1 [Compound 2148, 6-(2-hydroxy-4-methyl-phenyl)-N-[(2-oxo-1H-pyridin-3-yl)sulfonyl]-2-[(4S)-2,2,4-trimethylpyrrolidin-1-yl]pyridine-3-carboxamide] | 3 to 10
14 | CCOc1ccc(F)c(-c2ccc(C(=O)NS(=O)(=O)c3cccnc3N)c(N3C[C@@H](C)CC3(C)C)n2)c1 [Compound 2149, N-[(2-amino-3-pyridyl)sulfonyl]-6-(5-ethoxy-2-fluoro-phenyl)-2-[(4S)-2,2,4-trimethylpyrrolidin-1-yl]pyridine-3-carboxamide] | < 3
15 | CC(C)Cc1ccc(C(=O)NS(=O)(=O)c2cccnc2N)c(N2C[C@@H](C)CC2(C)C)n1 [Compound 2150, N-[(2-amino-3-pyridyl)sulfonyl]-6-isobutyl-2-[(4S)-2,2,4-trimethylpyrrolidin-1-yl]pyridine-3-carboxamide] | < 3
16 | CC1CN(c2ncccc2C(=O)NS(=O)(=O)c2cccc(OCc3ccc4ccccc4c3)n2)C(C)(C)C1 (stereo not shown) [Compound 2151, N—[[6-(2-naphthylmethoxy)-2-pyridyl]sulfonyl]-2-(2,2,4-trimethylpyrrolidin-1-yl)pyridine-3-carboxamide] | < 3

Row | Structure (SMILES) | EC30 [µM]
17 | COC1CCCN(c2cccc(S(=O)(=O)NC(=O)c3cccnc3N3CC(C)CC3(C)C)n2)C1 (stereo not shown) [Compound 2152, N—[[6-(3-methoxy-1-piperidyl)-2-pyridyl]sulfonyl]-2-(2,2,4-trimethylpyrrolidin-1-yl)pyridine-3-carboxamide] | 3 to 10
18 | CC(C)COc1ccc(-c2ccc(C(=O)NS(=O)(=O)c3ccc[nH]c3=O)c(N3C[C@@H](C)CC3(C)C)n2)cc1 [Compound 2153, 6-(4-isobutoxyphenyl)-N-[(2-oxo-1H-pyridin-3-yl)sulfonyl]-2-[(4S)-2,2,4-trimethylpyrrolidin-1-yl]pyridine-3-carboxamide] | < 3
19 | Cc1ccc(-c2ccc(C(=O)NS(=O)(=O)c3ccc[nH]c3=O)c(N3C[C@@H](C)CC3(C)C)n2)cc1C [Compound 2154, 6-(3,4-dimethylphenyl)-N-[(2-oxo-1H-pyridin-3-yl)sulfonyl]-2-[(4S)-2,2,4-trimethylpyrrolidin-1-yl]pyridine-3-carboxamide] | < 3
20 | CC(C)COc1cc(F)cc(-c2ccc(C(=O)NS(=O)(=O)c3cccc(N)n3)c(N3CC(F)(F)C3)n2)c1 [Compound 2155, N-[(6-amino-2-pyridyl)sulfonyl]-2-(3,3-difluoroazetidin-1-yl)-6-(3-fluoro-5-isobutoxy-phenyl)pyridine-3-carboxamide] | 3 to 10
21 | CC(C)Oc1cccc(-c2ccc(C(=O)NS(=O)(=O)N3CC[C@H](N)C3)c(N3C[C@@H](C)CC3(C)C)n2)c1 [Compound 2156, N-[(3S)-3-aminopyrrolidin-1-yl]sulfonyl-6-(3-isopropoxyphenyl)-2-[(4S)-2,2,4-trimethylpyrrolidin-1-yl]pyridine-3-carboxamide] | < 3
22 | CC1CN(c2ncc(-c3cccc4[nH]ncc34)cc2C(=O)NS(=O)(=O)c2cccc(N)n2)C(C)(C)C1 (stereo not shown) [Compound 2157, N-[(6-amino-2-pyridyl)sulfonyl]-5-(1H-indazol-4-yl)-2-(2,2,4-trimethylpyrrolidin-1-yl)pyridine-3-carboxamide] | > 10
23 | COc1cccc(-c2ccc(C(=O)NS(=O)(=O)c3cccnc3N)c(N3C[C@@H](C)CC3(C)C)n2)c1O [Compound 2158, N-[(2-amino-3-pyridyl)sulfonyl]-6-(2-hydroxy-3-methoxy-phenyl)-2-[(4S)-2,2,4-trimethylpyrrolidin-1-yl]pyridine-3-carboxamide] | 3 to 10
24 | C[C@@H]1CN(c2nc(-c3ccc(F)cc3F)ccc2C(=O)NS(=O)(=O)c2ccc[nH]c2=O)C(C)(C)C1 [Compound 2159, 6-(2,4-difluorophenyl)-N-[(2-oxo-1H-pyridin-3-yl)sulfonyl]-2-[(4S)-2,2,4-trimethylpyrrolidin-1-yl]pyridine-3-carboxamide] | < 3
25 | Cc1cc(C)nc(Nc2cccc(S(=O)(=O)NC(=O)c3cccnc3N3CC(C)CC3(C)C)n2)c1 (stereo not shown) [Compound 2160, N—[[6-[(4,6-dimethyl-2-pyridyl)amino]-2-pyridyl]sulfonyl]-2-(2,2,4-trimethylpyrrolidin-1-yl)pyridine-3-carboxamide] | 3 to 10
26 | CC1CN(c2ncccc2C(=O)NS(=O)(=O)c2cccc(OCCc3ccsc3)n2)C(C)(C)C1 (stereo not shown) [Compound 2161, N—[[6-[2-(3-thienyl)ethoxy]-2-pyridyl]sulfonyl]-2-(2,2,4-trimethylpyrrolidin-1-yl)pyridine-3-carboxamide] | < 3
27 | C[C@@H]1CN(c2nc(-c3cccc(F)c3F)ccc2C(=O)NS(=O)(=O)c2ccc[nH]c2=O)C(C)(C)C1 [Compound 2162, 6-(2,3-difluorophenyl)-N-[(2-oxo-1H-pyridin-3-yl)sulfonyl]-2-[(4S)-2,2,4-trimethylpyrrolidin-1-yl]pyridine-3-carboxamide] | < 3
28 | C[C@@H]1CN(c2nc(-c3cccc4c3OCC4)ccc2C(=O)NS(=O)(=O)c2cccnc2N)C(C)(C)C1 [Compound 2163, N-[(2-amino-3-pyridyl)sulfonyl]-6-(2,3-dihydrobenzofuran-7-yl)-2-[(4S)-2,2,4-trimethylpyrrolidin-1-yl]pyridine-3-carboxamide] | < 3
29 | COc1cccc(-c2ccc(C(=O)NS(=O)(=O)c3cccnc3N)c(N3C[C@@H](C)CC3(C)C)n2)c1 [Compound 2164, N-[(2-amino-3-pyridyl)sulfonyl]-6-(3-methoxyphenyl)-2-[(4S)-2,2,4-trimethylpyrrolidin-1-yl]pyridine-3-carboxamide] | < 3
30 | CC1CN(c2ncccc2C(=O)NS(=O)(=O)c2cccc(Oc3cccc(Cl)c3F)n2)C(C)(C)C1 (stereo not shown) [Compound 2165, N—[[6-(3-chloro-2-fluoro-phenoxy)-2-pyridyl]sulfonyl]-2-(2,2,4-trimethylpyrrolidin-1-yl)pyridine-3-carboxamide] | < 3
31 | CC1CN(c2ncccc2C(=O)NS(=O)(=O)c2cccc(N3CCC(F)(F)C3)n2)C(C)(C)C1 (stereo not shown) [Compound 2166, N—[[6-(3,3-difluoropyrrolidin-1-yl)-2-pyridyl]sulfonyl]-2-(2,2,4-trimethylpyrrolidin-1-yl)pyridine-3-carboxamide] | 3 to 10
